Test results from patent publication US12570641B2, “Solid forms of a CDK4 inhibitor” (Pfizer Inc., priority 2020, dated 2026).

Assay: Accelerated solid state chemical/humidity stability by UPLC
Type: physicochemical
Settings: for % impurity RRT 0.89 / % impurity RRT 1.31: UPLC
Protocol: Accelerated solid state chemical stability and photostability of PF-07220060 monohydrate (Form 2) was investigated. Solid state chemical/humidity stability of PF-07220060 monohydrate (Form 2) was evaluated by UPLC (ultra performance liquid chromatography) analysis after storage at 70° C./5% RH and 70° C./75% RH for one week, and at 40° C./5% RH and 40° C./75% RH for 6 weeks. The percentage of identified impurity peaks at the indicated RRT (relative retention time) values were determined under the challenge conditions versus a control sample stored at ambient temperature. RRT is calculated by dividing the retention time (RT) of the impurity by the RT of Form 2. Data at 70° C./5% RH and 70° C./75% RH for one week are provided in Table 14 and Table 15, respectively.

[1] = control sample stored at ambient temperature
[2] = stressed samples: 70° C./75% RH and 70° C./5% RH for one week, 40° C./75% RH and 40° C./5% RH for 6 weeks

% impurity RRT 0.89 (70° C./5% RH (one week)): 0.57%
% impurity RRT 1.31 (70° C./5% RH (one week)): 0.99%
% impurity RRT 0.89 (70° C./75% RH (one week)): 0.58%
% impurity RRT 1.31 (70° C./75% RH (one week)): 1.00%
% impurity RRT 0.89 [1]: 0.57%
% impurity RRT 1.31 [1]: 1.00%
change in appearance compared to the control sample [2]: No significant change in appearance
growth of individual impurities [2]: ≤ 0.2%
total impurities [2]: ≤ 2.0%
SMILES: CC(C)n1c(C(C)(C)O)nc2c(F)cc(-c3nc(N[C@@H]4CCOC[C@H]4O)ncc3Cl)cc21 [Form 2, 1,5-anhydro-3-({5-chloro-4-[4-fluoro-2-(2-hydroxypropan-2-yl)-1-(propan-2-yl)-1H-benzimidazol-6-yl]pyrimidin-2-yl}amino)-2,3-dideoxy-D-threo-pentitol monohydrate]
